Assay results from patent US12691111B2, “SETD2 inhibitors and related methods and uses, including combination therapies” (EPIZYME, INC., priority 2020, dated 2026).

Experiments:
REC1 = test: 7-day co-treatment combination study, CellTiter-Glo, Loewe Volume; format: cell-based; conditions: REC1 mantle cell lymphoma cells, 7-day co-treatment with Cpd. No. 15
Experimental: (§1) Multiple myeloma (MM) and mantle cell lymphoma (MCL) Cell line cultures in log-linear growth rate were treated with combinations of Cpd. No. 15 and combination partners according to a co-treatment model. […] No. 15 and the combination partner. […] Each combination was tested in quadruplicate wells. The final concentration of DMSO (vehicle) in the assay was 0.1% v/v. Fifty microliters of cell line suspension were directly dispensed to the assay-ready plates with an automated multichannel dispenser on to 384-well assay-ready plates. Assay plates were incubated for seven days in a humidified atmosphere of 5% CO2 at 37° C. Quantification of the effect of single agents or combinations on cell viability was performed through measurement of cellular adenosine triphosphate (ATP) using a CellTiter-Glo® (Promega, MadisonWIs.) Luminescent Cell Viability Assay. Luminescence was detected using a SpectraMax M5 microplate reader (Molecular Devices, Sunnyvale, CA). Concentration response plots were generated in GraphPad Prism version 7.0 for Windows, GraphPad Software, (La Jolla, CA) and curves fitted to a four-parameter logistic model with variable slope. Percent of inhibition was calculated at each treatment concentration.
(§2) The results of these combinations are summarized in Tables A and B (multiple myeloma cell lines), and Tables C and D (mantle cell lymphoma cell lines).

Z138 = test: as above; format: cell-based; conditions: Z138 mantle cell lymphoma cells, 7-day co-treatment with Cpd. No. 15
Experimental: as §1, §2

MM1.S = test: as above; format: cell-based; conditions: MM1.S multiple myeloma cells, 7-day co-treatment with Cpd. No. 15
Experimental: as §1, §2

RPMI-8226 = test: as above; format: cell-based; conditions: RPMI-8226 multiple myeloma cells, 7-day co-treatment with Cpd. No. 15
Experimental: as §1, §2

L363 = test: as above; format: cell-based; conditions: L363 multiple myeloma cells, 7-day co-treatment with Cpd. No. 15
Experimental: as §1, §2

MINO = test: as above; format: cell-based; conditions: MINO mantle cell lymphoma cells, 7-day co-treatment with Cpd. No. 15
Experimental: as §1, §2

KMS34 = test: as above; format: cell-based; conditions: KMS34 multiple myeloma cells, 7-day co-treatment with Cpd. No. 15
Experimental: as §1, §2

JVM2 = test: as above; format: cell-based; conditions: JVM2 mantle cell lymphoma cells, 7-day co-treatment with Cpd. No. 15
Experimental: as §1, §2

MAVER1 = test: as above; format: cell-based; conditions: MAVER1 mantle cell lymphoma cells, 7-day co-treatment with Cpd. No. 15
Experimental: as §1, §2

GRANTA519 = test: as above; format: cell-based; conditions: GRANTA519 mantle cell lymphoma cells, 7-day co-treatment with Cpd. No. 15
Experimental: as §1, §2

JEKO1 = test: as above; format: cell-based; conditions: JEKO1 mantle cell lymphoma cells, 7-day co-treatment with Cpd. No. 15
Experimental: as §1, §2

SUDHL-6 = test: Pre-treatment model combination study (4 days pre-treatment, 3 days co-treatment), CellTiter-Glo, Loewe Volume; format: cell-based; conditions: SUDHL-6 diffuse large B-cell lymphoma cells, 4 days Cpd. No. 15 pre-treatment then 3 days co-treatment
Experimental: (§3) Diffuse large B-cell lymphoma cells were seeded into flasks and pre-treated with several concentrations of Cpd. No. 15 or DMSO. Cells were then split adjusted to initial density, replated and co-treated Cpd. No. 15 and a second agent of interest using the HP D300 digital dispenser (Tecan Group, Mannedorf, Switzerland) in tissue culture treated solid white 384-well plates for additional 3 days. […] After 3 days cotreatment, cell viability was measured via ATP content using CellTiter-Glo® (Promega, Madison, WI) and luminescence was detected using a SpectraMax M5 microplate reader (Molecular Devices, Sunnyvale, CA).
(§4) Diffuse large B-cell lymphoma (DLBCL) cell line cultures in log-linear growth rate were treated with combinations of Cpd. No. 15 and combination partners according to a pre-treatment model. Cells were seeded first into 8 flasks and pre-treated with 7 different concentrations of Cpd. […] Cells were harvested from each flask and re-seeded onto the corresponding 384-well plate with the same concentration of Cpd. No. 15. and 9 concentrations of its combination partner in triplicate wells. The final concentration of DMSO (vehicle) in the assay was 0.1% v/v. Fifty microliters of cell line(s) suspension were directly dispensed to the assay-ready plates with an automated multichannel dispenser on to 384-well assay-ready plates. Assay plates were incubated for three days in a humidified atmosphere of 5% CO2 at 37° C. Quantification of the effect of single agents or combinations on cell viability was performed through measurement of cellular adenosine triphosphate (ATP) using CellTiter-Glo® (Promega, Madison, WI). Luminescence was detected using a SpectraMax M5 microplate reader (Molecular Devices, Sunnyvale, CA). Concentration response plots were generated in GraphPad Prism version 8.0 for Windows, GraphPad Software, (La Jolla, CA) and curves fitted to a four-parameter logistic model with variable slope. Percent of inhibition was calculated at each treatment concentration.

WSUDLCL2 = test: as above; format: cell-based; conditions: WSUDLCL2 diffuse large B-cell lymphoma cells, 4 days Cpd. No. 15 pre-treatment then 3 days co-treatment
Experimental: as §3, §4

KARPAS422 = test: as above; format: cell-based; conditions: KARPAS422 diffuse large B-cell lymphoma cells, 4 days Cpd. No. 15 pre-treatment then 3 days co-treatment
Experimental: as §3, §4

SUDHL-2 = test: as above; format: cell-based; conditions: SUDHL-2 diffuse large B-cell lymphoma cells, 4 days Cpd. No. 15 pre-treatment then 3 days co-treatment
Experimental: as §3, §4

KMS-28-BM = test: 7-day co-treatment combination study, CellTiter-Glo, Loewe Volume; format: cell-based; conditions: KMS-28-BM multiple myeloma cells, 7-day co-treatment with Cpd. No. 15
Experimental: as §1, §2

KMS-11 = test: as above; conditions: KMS-11 multiple myeloma cells, 7-day co-treatment with Cpd. No. 15
NCI-H929 = test: as above; format: cell-based; conditions: NCI-H929 multiple myeloma cells, 7-day co-treatment with Cpd. No. 15
Experimental: as §1, §2

In the case of `CCN(c1cc(-c2ccc(CN3CCOCC3)cc2)cc(C(=O)NCc2c(C)cc(C)[nH]c2=O)c1C)C1CCOCC1` [Tazemetostat, tazemetostat], the “Combination effect (Loewe Volume class) of Cpd. No. 15 with combination partner” value (REC1) is reported as “Additivity (between 1 and −1: additivity)”, the “Combination effect (Loewe Volume class) of Cpd. No. 15 with combination partner” value (Z138) is reported as “No Effect” and the “Combination effect (Loewe Volume class) of Cpd. No. 15 with combination partner” value (MM1.S) is reported as “Synergy (VLoewe>1: synergy)”. For the same molecule, the “Combination effect (Loewe Volume class) of Cpd. No. 15 with combination partner” value (RPMI-8226) was “Additivity (between 1 and −1: additivity)”, the “Combination effect (Loewe Volume class) of Cpd. No. 15 with combination partner” value (L363) was “Synergy (VLoewe>1: synergy)” and the “Combination effect (Loewe Volume class) of Cpd. No. 15 with combination partner” value (MINO) was “No Effect”. The “Combination effect (Loewe Volume class) of Cpd. No. 15 with combination partner” value (KMS34) was “Synergy (VLoewe>1: synergy)”, the “Combination effect (Loewe Volume class) of Cpd. No. 15 with combination partner” value (JVM2) was “Additivity (between 1 and −1: additivity)” and the “Combination effect (Loewe Volume class) of Cpd. No. 15 with combination partner” value (MAVER1) was “Additivity (between 1 and −1: additivity)”. For the same molecule, the “Combination effect (Loewe Volume class) of Cpd. No. 15 with combination partner” value (GRANTA519) was “No Effect”, the “Combination effect (Loewe Volume class) of Cpd. No. 15 with combination partner” value (JEKO1) was “No Effect” and the “Combination effect (Loewe Volume class) of Cpd. No. 15 with combination partner” value (SUDHL-6) was “No effect”. The “Combination effect (Loewe Volume class) of Cpd. No. 15 with combination partner” value (WSUDLCL2) was “Additivity (between 1 and −1: additivity)”, the “Combination effect (Loewe Volume class) of Cpd. No. 15 with combination partner” value (KARPAS422) was “No effect” and the “Combination effect (Loewe Volume class) of Cpd. No. 15 with combination partner” value (SUDHL-2) was “Additivity (between 1 and −1: additivity)”.
`Nc1cccc2c1CN(C1CCC(=O)NC1=O)C2=O` (centres unmarked) [Lenalidomide, lenalidomide] was tested, and the “Combination effect (Loewe Volume class) of Cpd. No. 15 with combination partner” value (REC1) was “Additivity (between 1 and −1: additivity)”, the “Combination effect (Loewe Volume class) of Cpd. No. 15 with combination partner” value (Z138) was “Synergy (VLoewe>1: synergy)” and the “Combination effect (Loewe Volume class) of Cpd. No. 15 with combination partner” value (MM1.S) was “Additivity (between 1 and −1: additivity)”. The “Combination effect (Loewe Volume class) of Cpd. No. 15 with combination partner” value (RPMI-8226) was “Synergy (VLoewe>1: synergy)”, the “Combination effect (Loewe Volume class) of Cpd. No. 15 with combination partner” value (L363) was “Additivity (between 1 and −1: additivity)” and the “Combination effect (Loewe Volume class) of Cpd. No. 15 with combination partner” value (MINO) was “Additivity (between 1 and −1: additivity)”. The “Combination effect (Loewe Volume class) of Cpd. No. 15 with combination partner” value (KMS34) was “Synergy (VLoewe>1: synergy)”, the “Combination effect (Loewe Volume class) of Cpd. No. 15 with combination partner” value (JVM2) was “Additivity (between 1 and −1: additivity)” and the “Combination effect (Loewe Volume class) of Cpd. No. 15 with combination partner” value (MAVER1) was “Synergy (VLoewe>1: synergy)”. The “Combination effect (Loewe Volume class) of Cpd. No. 15 with combination partner” value (GRANTA519) was “Additivity (between 1 and −1: additivity)”, the “Combination effect (Loewe Volume class) of Cpd. No. 15 with combination partner” value (JEKO1) was “Synergy (VLoewe>1: synergy)” and the “Combination effect (Loewe Volume class) of Cpd. No. 15 with combination partner” value (KMS-28-BM) was “No Effect”. For the same molecule, the “Combination effect (Loewe Volume class) of Cpd. No. 15 with combination partner” value (KMS-11) was “Synergy (VLoewe>1: synergy)”, the “Combination effect (Loewe Volume class) of Cpd. No. 15 with combination partner” value (SUDHL-6) was “No effect” and the “Combination effect (Loewe Volume class) of Cpd. No. 15 with combination partner” value (WSUDLCL2) was “Additivity (between 1 and −1: additivity)”. The “Combination effect (Loewe Volume class) of Cpd. No. 15 with combination partner” value (KARPAS422) was “No effect” and the “Combination effect (Loewe Volume class) of Cpd. No. 15 with combination partner” value (SUDHL-2) was “Additivity (between 1 and −1: additivity)”.
`CC1(C)CCC(CN2CCN(c3ccc(C(=O)NS(=O)(=O)c4ccc(NCC5CCOCC5)c([N+](=O)[O-])c4)c(Oc4cnc5[nH]ccc5c4)c3)CC2)=C(c2ccc(Cl)cc2)C1` [Venetoclax, venetoclax] was tested, and the “Combination effect (Loewe Volume class) of Cpd. No. 15 with combination partner” value (REC1) was “Additivity (between 1 and −1: additivity)”, the “Combination effect (Loewe Volume class) of Cpd. No. 15 with combination partner” value (Z138) was “Synergy (VLoewe>1: synergy)” and the “Combination effect (Loewe Volume class) of Cpd. No. 15 with combination partner” value (MM1.S) was “Additivity (between 1 and −1: additivity)”. The “Combination effect (Loewe Volume class) of Cpd. No. 15 with combination partner” value (RPMI-8226) was “Additivity (between 1 and −1: additivity)”, the “Combination effect (Loewe Volume class) of Cpd. No. 15 with combination partner” value (L363) was “Additivity (between 1 and −1: additivity)” and the “Combination effect (Loewe Volume class) of Cpd. No. 15 with combination partner” value (MINO) was “Additivity (between 1 and −1: additivity)”. For the same molecule, the “Combination effect (Loewe Volume class) of Cpd. No. 15 with combination partner” value (KMS34) was “Additivity (between 1 and −1: additivity)”, the “Combination effect (Loewe Volume class) of Cpd. No. 15 with combination partner” value (JVM2) was “Synergy (VLoewe>1: synergy)” and the “Combination effect (Loewe Volume class) of Cpd. No. 15 with combination partner” value (MAVER1) was “Synergy (VLoewe>1: synergy)”. The “Combination effect (Loewe Volume class) of Cpd. No. 15 with combination partner” value (NCI-H929) was “Synergy (VLoewe>1: synergy)”, the “Combination effect (Loewe Volume class) of Cpd. No. 15 with combination partner” value (GRANTA519) was “Synergy (VLoewe>1: synergy)” and the “Combination effect (Loewe Volume class) of Cpd. No. 15 with combination partner” value (JEKO1) was “Additivity (between 1 and −1: additivity)”. The “Combination effect (Loewe Volume class) of Cpd. No. 15 with combination partner” value (KMS-28-BM) was “Additivity (between 1 and −1: additivity)”, the “Combination effect (Loewe Volume class) of Cpd. No. 15 with combination partner” value (KMS-11) was “Synergy (VLoewe>1: synergy)” and the “Combination effect (Loewe Volume class) of Cpd. No. 15 with combination partner” value (SUDHL-6) was “Synergy (VLoewe>1: synergy)”. For the same molecule, the “Combination effect (Loewe Volume class) of Cpd. No. 15 with combination partner” value (WSUDLCL2) was “Synergy (VLoewe>1: synergy)”, the “Combination effect (Loewe Volume class) of Cpd. No. 15 with combination partner” value (KARPAS422) was “No effect” and the “Combination effect (Loewe Volume class) of Cpd. No. 15 with combination partner” value (SUDHL-2) was “Synergy (VLoewe>1: synergy)”.
